Here are results for three compounds from PubChem BioAssay AID1963829 (Molecular Pharmacology Branch, DTP, NCI, 2024).

For the assay, the system named is 935938-334-R-J1-PDC complex spheroid viability. Kind of assay: Anticancer human tumor 935938-334-R-J1-PDC patient-derived small intestine adenocarcinoma cell line growth inhibition [POLQ]. Conditions: for viability, T/C: stronger effect = lower value. Here is the method:
Multicellular complex tumor spheroid response to Polymerase (POL) inhibitors (novobiocin, ART-558, RP6685) in combination with a variety of drugs and investigational agents in selected tumor cell lines
The POL inhibitors (novobiocin, ART-558, and RP6685) were evaluated both individually and in combination with standard of care and investigational anticancer small molecules within a complex spheroid model of solid tumors. . Complex spheroids include a stromal component modeled by human endothelial cells (HUVEC) and fibroblasts modeled by human mesenchymal stem cells (MSCs). The concentration ranges selected for each drug and investigational agent were based upon clinically achievable concentrations if the clinical Cmax of the agent was known.
Compounds. The drugs and investigational agents: novobiocin (NSC847541), ART-558 (NSC835418), RP-6685 (NSC848927), peposertib (NSC802822), ceralasertib (NSC780249), elimusertib (NSC800525), camonsertib (NSC841442), AZD-1390 (NSC803789), olaparib (NSC753686), talazoparib (NSC767125), rucaparib (NSC756644), sotorasib (NSC818433), MRTX-1133 (NSC836407), SN-38 (NSC673596), topotecan (NSC609699), epotoside (NSC141540), doxorubicin (NSC123127), gemcitabine (NSC613327), 5-fluorouracil (NSC19893), paclitaxel (NSC125973), vemurafenib (NSC761431), MSA-2 (NSC828583), SN-011 (NSC837082), adavosertib (NSC754352), prexasertib (NSC758257), carboplatin (NSC241240) and oxaliplatin (NSC266046), were obtained from the National Cancer Institute (NCI) Developmental Therapeutics Program Chemical Repository (21). The FDA-approved anticancer drug set is available from the Developmental Therapeutics Program at https://dtp.cancer.gov/organization/dscb/obtaining/. […] The stock solutions were prepared in dimethyl sulfoxide (DMSO, Sigma-Aldrich, St. Louis, MO, cat. D2650), except for the platinum compounds which were prepared in saline (Quality Biological, Gaithersburg, MD, cat. 114-055-101), at 800-fold the tested concentration and stored at -70 degrees C prior to their use. All drugs and investigational agents were tested over a range starting from a high concentration at or near the clinical Cmax and decreasing in half-log increments. If the clinical Cmax for an agent had not been determined, the highest concentration tested was 10 microM, except for SN-38, which was tested at a high concentration of 1 microM.
Cell Culture. All cells were maintained in an incubator at 37 degrees C and 5% CO2 with 95% humidity. The PDC lines were cultured according to standard operating procedures established by the NCI PDMR (https://pdmr.cancer.gov). Table 3 of the manuscript, lists the cell lines along with the number of the three cell types plated to form the mct-spheroids and media for tumor cell growth. After thawing, all PDC lines, except 997537-175-T-J1-PDC and 415267-285-R-J2-PDC, were cultured in Matrigel-coated flasks prepared with a working solution of 1X Ham's F-12 nutrient mix, without supplementation (Thermo Fisher Scientific, cat. 11765054), 100 U/mL penicillin-streptomycin (Thermo Fisher Scientific, cat. 15140122), and 2.5% Matrigel (Corning Inc., Corning, NY, cat. 354248) for the first three passages. The two PDC lines 997537-175-T-J1-PDC and 415267-285-R-J2-PDC were cultured on uncoated flasks. The 857933-349-R-J2-PDC line was cultured in 6C/Colon 1B media containing advanced DMEM/F-12 (Thermo Fisher Scientific, cat. 12634028), 10 mM HEPES (Thermo Fisher Scientific, cat. 15630080), 1X GlutaMAX supplement (Thermo Fisher Scientific, cat. 35050061), 0.1 mg/mL primocin (InvivoGen, San Diego, CA, cat. ant-pm-2), 10% defined fetal bovine serum, heat inactivated (HyClone Laboratories Inc., Logan, UT, cat. SH30070.03HI), 50% L-WRN conditioned media (ATCC, cat. CRL-3276), 1.25 mM N-Acetyl-L-cysteine (Sigma-Aldrich, cat. A9165), 10 mM nicotinamide (Sigma-Aldrich, cat. N0636), 1X B-27 supplement (Thermo Fisher Scientific, cat. 17504044), 1X N-2 supplement (Thermo Fisher Scientific, cat. […]

Structures are written as SMILES. Where “and” joins values, the source holds several entries; their conditions need not be identical. Identical values can stand only once.
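Further: spheroids exposed to drugs for seven days before viability read.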
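Wherever viability, T/C is given: 100% = DMSO vehicle control wells.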

With `CCc1cc2c(N3CCc4c(cc(Cn5ccnc5)cc4-c4cn(C)nc4C(F)(F)F)C3=O)ccnc2c(OC)n1` + Cc1cccc(N(C)C(=O)C2C(O)CCN2c2nc(C)cc(C(F)(F)F)c2C#N)c1, the IC50 is above 10 µM (curve of first compound, second compound 0.0316 µM); above 10 µM (curve of first compound, second compound 0.1 µM); above 10 µM (curve of first compound, second compound 0.316 µM); above 10 µM (curve of first compound, second compound 1 µM); above 10 µM (curve of first compound, second compound 3.16 µM); above 10 µM (curve of first compound, second compound 10 µM). In addition, the viability, T/C was 69.1% (second compound 0.0316 µM, first compound 0.0316 µM); 66.5% (second compound 0.0316 µM, first compound 0.1 µM); 68.8% (second compound 0.0316 µM, first compound 0.316 µM); 58.4% (second compound 0.0316 µM, first compound 1 µM); 69.4% (second compound 0.0316 µM, first compound 3.16 µM); 55.3% (second compound 0.0316 µM, first compound 10 µM). Also, the viability, T/C by setting is: (second compound 0.1 µM, first compound 0.0316 µM) 74.5%; (second compound 0.1 µM, first compound 0.1 µM) 75%; (second compound 0.1 µM, first compound 0.316 µM) 63.2%; (second compound 0.1 µM, first compound 1 µM) 54.5%; (second compound 0.1 µM, first compound 3.16 µM) 60.6%; (second compound 0.1 µM, first compound 10 µM) 55.8%. Further, the viability, T/C (second compound 0.316 µM, first compound 0.0316 µM) was 61.5%; the viability, T/C (second compound 0.316 µM, first compound 0.1 µM) was 87.3%; the viability, T/C (second compound 0.316 µM, first compound 0.316 µM) is 64.2%; the viability, T/C (second compound 0.316 µM, first compound 1 µM) is 59.7%; the viability, T/C (second compound 0.316 µM, first compound 3.16 µM) is 69.5%; the viability, T/C (second compound 0.316 µM, first compound 10 µM) was 64.1%. The viability, T/C by setting is: (second compound 1 µM, first compound 0.0316 µM) 98.3%; (second compound 1 µM, first compound 0.1 µM) 54.9%; (second compound 1 µM, first compound 0.316 µM) 58.3%; (second compound 1 µM, first compound 1 µM) 67.8%; (second compound 1 µM, first compound 3.16 µM) 65.8%; (second compound 1 µM, first compound 10 µM) 57.6%. For the same compound, the viability, T/C runs as follows: (second compound 3.16 µM, first compound 0.0316 µM) 78.3%; (second compound 3.16 µM, first compound 0.1 µM) 68.3%; (second compound 3.16 µM, first compound 0.316 µM) 67.9%; (second compound 3.16 µM, first compound 1 µM) 79%; (second compound 3.16 µM, first compound 3.16 µM) 71.8%; (second compound 3.16 µM, first compound 10 µM) 57.8%. Further, the viability, T/C reads like this: (second compound 10 µM, first compound 0.0316 µM) 95.5%; (second compound 10 µM, first compound 0.1 µM) 62.8%; (second compound 10 µM, first compound 0.316 µM) 81.6%; (second compound 10 µM, first compound 1 µM) 65.8%; (second compound 10 µM, first compound 3.16 µM) 61.2%; (second compound 10 µM, first compound 10 µM) 51.9%.

Take `COc1cccc2c1C(=O)c1c(O)c3c(c(O)c1C2=O)CC(O)(C(=O)CO)CC3OC1CC(N)C(O)C(C)O1` (stereo unspecified): the viability, T/C was 68.8% and 69.1% and 56.6% (compound 0.0316 µM); 39.8% and 38.5% and 102% (compound 0.1 µM); 25.9% and 33.7% and 25.3% (compound 0.316 µM); 23.2% and 22.7% and 24.1% (compound 1 µM); 7.61% and 6.31% and 3.97% (compound 3.16 µM); 6.95% and 3.94% and 4.69% (compound 10 µM). Moreover, under “curve of compound”, the half-maximal inhibitory concentration (IC50) was 0.0707 µM and 0.0792 µM and 0.187 µM.

In the case of `CCc1cc2c(N3CCc4c(cc(Cn5ccnc5)cc4-c4cn(C)nc4C(F)(F)F)C3=O)ccnc2c(OC)n1`, the viability, T/C is 78.9% and 69.7% and 64.6% (compound 0.0316 µM); 56.2% and 71.7% and 57.9% (compound 0.1 µM); 70.9% and 68.9% and 69.7% (compound 0.316 µM); 61.2% and 62% and 60.9% (compound 1 µM); 64.3% and 76.9% and 69.6% (compound 3.16 µM); 57.7% and 50.2% and 58.4% (compound 10 µM). In addition, the IC50 (curve of compound) was above 10 µM.

Broadly, the IC50 is the concentration that gives 50% inhibition. As a reminder, the viability, T/C is the result in the treated group divided by that in the control group, in per cent.
